Test results taken from PubChem BioAssay AID256 (DTP/NCI, 2004).
Values joined by “and” are separate entries in the source; they are usually repeats but may differ in a detail not shown here. Identical values can stand only once. Toxic doses and inconclusive results are not listed. The calls were made as follows: active = survival T/C of 150% or more; inactive = T/C below 125% in these data.

Tested on: CD2F1 mice, L1210 leukemia ip, survival T/C
Assay: NCI In Vivo Anticancer Drug Screen. Data for tumor model L1210 Leukemia (intraperitoneal) in CD2F1 (CDF1) mice
Settings: higher = longer survival
Outline: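 In this screen, transplantable tumors were grown in mice given either the compound or its vehicle. Results were expressed as the treated measurement relative to the control measurement.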

[1] = endpoint: mean survival time, dose: 50.0 mg/kg/injection, schedule: Q04DX003 (ip), vehicle: saline with Tween-80
[2] = endpoint: mean survival time, dose: 100.0 mg/kg/injection, schedule: Q04DX003 (ip), vehicle: saline with Tween-80
[3] = endpoint: mean survival time, dose: 200.0 mg/kg/injection, schedule: Q04DX003 (ip), vehicle: saline with Tween-80
[4] = endpoint: mean survival time, dose: 400.0 mg/kg/injection, schedule: Q04DX003 (ip), vehicle: saline with Tween-80
[5] = endpoint: mean survival time, dose: 100.0 mg/kg/injection, schedule: Q01DX009 (ip), vehicle: saline with Tween-80
[6] = endpoint: mean survival time, dose: 200.0 mg/kg/injection, schedule: Q01DX009 (ip), vehicle: saline with Tween-80
[7] = endpoint: mean survival time, dose: 400.0 mg/kg/injection, schedule: Q01DX009 (ip), vehicle: saline with Tween-80

Measured: T/C

[Cl][Pt+2][Cl].[NH-]c1ccc(S(=O)(=O)Nc2ccccn2)cc1.[NH-]c1ccc(S(=O)(=O)Nc2ccccn2)cc1
inactive: endpoint: mean survival time, dose: 25.0 mg/kg/injection, schedule: Q04DX003 (ip), vehicle: saline with Tween-80 97 % of control | [1] 97 % of control | [2] 96 % of control | [3] 102 % of control | [4] 107 % of control

Cc1ccc(O[Si](C)(C)C)cc1
inactive: [5] 100 % of control | [2] 103 % of control | [3] 87 % of control | [4] 89 % of control

COc1ccc(-c2nccc3cc(OC)c(OC)cc23)cc1OC
inactive: endpoint: mean survival time, dose: 12.5 mg/kg/injection, schedule: Q01DX009 (ip), vehicle: water 95 % of control | endpoint: mean survival time, dose: 25.0 mg/kg/injection, schedule: Q01DX009 (ip), vehicle: water 95 % of control | endpoint: mean survival time, dose: 50.0 mg/kg/injection, schedule: Q01DX009 (ip), vehicle: water 103 % of control

CCCCOC1CCC2(C)C(=CCC3C2CCC2(C)C(C(C)CCCC(C)C)CCC32)C1 (stereo not given)
inactive: endpoint: mean survival time, dose: 100.0 mg/kg/injection, schedule: Q01DX009 (sc), vehicle: steriod suspending solution 114 % of control | endpoint: mean survival time, dose: 100.0 mg/kg/injection, schedule: Q04DX003 (sc), vehicle: steriod suspending solution 91 % of control | endpoint: mean survival time, dose: 200.0 mg/kg/injection, schedule: Q01DX009 (sc), vehicle: steriod suspending solution 102 % of control | endpoint: mean survival time, dose: 200.0 mg/kg/injection, schedule: Q04DX003 (sc), vehicle: steriod suspending solution 96 % of control | endpoint: mean survival time, dose: 400.0 mg/kg/injection, schedule: Q01DX009 (sc), vehicle: steriod suspending solution 103 % of control | endpoint: mean survival time, dose: 400.0 mg/kg/injection, schedule: Q04DX003 (sc), vehicle: steriod suspending solution 102 % of control

CCC(=O)Oc1ccc(/C=N/NC(N)=S)nc1
inactive: endpoint: mean survival time, dose: 100.0 mg/kg/injection, schedule: Q04DX002 (ip), vehicle: other 108 % of control | endpoint: mean survival time, dose: 178.0 mg/kg/injection, schedule: Q01DX001 (ip), vehicle: other 114 % of control | endpoint: mean survival time, dose: 178.0 mg/kg/injection, schedule: Q04DX003 (ip), vehicle: other 116 % of control | endpoint: mean survival time, dose: 200.0 mg/kg/injection, schedule: Q04DX002 (ip), vehicle: other 123 % of control | endpoint: mean survival time, dose: 266.0 mg/kg/injection, schedule: Q01DX001 (ip), vehicle: other 112 % of control | endpoint: mean survival time, dose: 266.0 mg/kg/injection, schedule: Q04DX003 (ip), vehicle: other 113 % of control | endpoint: mean survival time, dose: 400.0 mg/kg/injection, schedule: Q01DX001 (ip), vehicle: other 118 % of control | endpoint: mean survival time, dose: 400.0 mg/kg/injection, schedule: Q04DX003 (ip), vehicle: other 122 % of control | endpoint: mean survival time, dose: 600.0 mg/kg/injection, schedule: Q01DX001 (ip), vehicle: other 110 % of control | endpoint: mean survival time, dose: 600.0 mg/kg/injection, schedule: Q04DX003 (ip), vehicle: other 119 % of control | endpoint: mean survival time, dose: 900.0 mg/kg/injection, schedule: Q04DX003 (ip), vehicle: other 122 % of control

C/C(=C\c1ccccc1)CCC(=O)O
inactive: endpoint: mean survival time, dose: 50.0 mg/kg/injection, schedule: Q04DX003 (ip), vehicle: saline 100 % of control | endpoint: mean survival time, dose: 100.0 mg/kg/injection, schedule: Q04DX003 (ip), vehicle: saline 103 % of control | endpoint: mean survival time, dose: 200.0 mg/kg/injection, schedule: Q04DX003 (ip), vehicle: saline 97 % of control

O=C(C[n+]1ccccc1)N/N=C/c1ccccc1Cl
inactive: [5] 105 % of control

CC(C)N(CCN(C)C(=O)C(O)(c1ccccc1)c1ccccc1)C(C)C
inactive: [1] 101 % of control | [2] 93 % of control and 98 % of control | [3] 104 % of control

C[PH+](C)C.C[PH+](C)C.[Au]
inactive: endpoint: median survival time, dose: 0.62 mg/kg/injection, schedule: Q01DX009 (ip), vehicle: saline 101 % of control | endpoint: median survival time, dose: 1.25 mg/kg/injection, schedule: Q01DX009 (ip), vehicle: saline 101 % of control | endpoint: median survival time, dose: 2.5 mg/kg/injection, schedule: Q01DX009 (ip), vehicle: saline 101 % of control | endpoint: median survival time, dose: 5.0 mg/kg/injection, schedule: Q01DX009 (ip), vehicle: saline 101 % of control | endpoint: median survival time, dose: 10.0 mg/kg/injection, schedule: Q01DX009 (ip), vehicle: saline 101 % of control

C[N+]1(C)CCC2=CC3C=CC2C1C=C3 (stereo not given)
inactive: endpoint: median survival time, dose: 25.0 mg/kg/injection, schedule: Q04DX002 (ip), vehicle: saline with Tween-80 100 % of control | endpoint: median survival time, dose: 50.0 mg/kg/injection, schedule: Q04DX002 (ip), vehicle: saline with Tween-80 100 % of control

CC[C@H](CC[C@@H](C)C1CC[C@H]2[C@@H]3CC=C4C[C@@H](OP(=O)(N5CC5)N5CC5)CC[C@]4(C)[C@H]3CC[C@]12C)C(C)C (stereo not given in full)
inactive: endpoint: mean survival time, dose: 12.5 mg/kg/injection, schedule: Q01DX009 (ip), vehicle: saline with Tween-80 97 % of control | endpoint: mean survival time, dose: 25.0 mg/kg/injection, schedule: Q01DX009 (ip), vehicle: saline with Tween-80 92 % of control | endpoint: mean survival time, dose: 50.0 mg/kg/injection, schedule: Q01DX009 (ip), vehicle: saline with Tween-80 93 % of control | [5] 92 % of control | [6] 108 % of control | [7] 97 % of control

CO/N=C(/c1ccccc1)c1cc[n+](C)cc1
inactive: endpoint: mean survival time, dose: 37.5 mg/kg/injection, schedule: Q04DX003 (ip), vehicle: saline 100 % of control | endpoint: mean survival time, dose: 75.0 mg/kg/injection, schedule: Q01DX001 (ip), vehicle: saline 95 % of control | endpoint: mean survival time, dose: 75.0 mg/kg/injection, schedule: Q04DX003 (ip), vehicle: saline 96 % of control | endpoint: mean survival time, dose: 150.0 mg/kg/injection, schedule: Q01DX001 (ip), vehicle: saline 100 % of control

COc1ccc(CCNC(=O)NC(C)(C)C)cc1OC
inactive: [5] 96 % of control | [6] 100 % of control | [7] 93 % of control

O=c1[nH]c(=S)nc2nc[nH]n12
inactive: endpoint: mean survival time, dose: 12.5 mg/kg/injection, schedule: Q01DX001 (ip), vehicle: carboxymethylcellulose (CMC) 97 % of control | endpoint: mean survival time, dose: 25.0 mg/kg/injection, schedule: Q01DX001 (ip), vehicle: carboxymethylcellulose (CMC) 100 % of control | endpoint: mean survival time, dose: 50.0 mg/kg/injection, schedule: Q01DX001 (ip), vehicle: carboxymethylcellulose (CMC) 104 % of control | endpoint: mean survival time, dose: 100.0 mg/kg/injection, schedule: Q01DX001 (ip), vehicle: carboxymethylcellulose (CMC) 97 % of control | endpoint: mean survival time, dose: 200.0 mg/kg/injection, schedule: Q01DX001 (ip), vehicle: carboxymethylcellulose (CMC) 97 % of control

CC1CC(C)(C)NC1=O (stereo not given)
inactive: endpoint: mean survival time, dose: 6.25 mg/kg/injection, schedule: Q04DX003 (ip), vehicle: saline 103 % of control | endpoint: mean survival time, dose: 12.5 mg/kg/injection, schedule: Q04DX003 (ip), vehicle: saline 104 % of control | endpoint: mean survival time, dose: 25.0 mg/kg/injection, schedule: Q04DX003 (ip), vehicle: saline 95 % of control

C/C=C(/CCCCC)C(=O)OCC
inactive: [5] 106 % of control | [6] 100 % of control | [7] 101 % of control

CN(C)Nc1cc(N)c(N=Nc2ccccc2)c(=O)[nH]1
inactive: endpoint: mean survival time, dose: 100.0 mg/kg/injection, schedule: Q01DX001 (ip), vehicle: Klucel (hydroxypropylcellulose) (HPC) 107 % of control | endpoint: mean survival time, dose: 200.0 mg/kg/injection, schedule: Q01DX001 (ip), vehicle: Klucel (hydroxypropylcellulose) (HPC) 97 % of control | endpoint: mean survival time, dose: 400.0 mg/kg/injection, schedule: Q01DX001 (ip), vehicle: Klucel (hydroxypropylcellulose) (HPC) 117 % of control

CC1=NCCCN=C(C)CC[N-]CCC[N-]CC1.[Ni+2].[O-][Cl+3]([O-])([O-])O
inactive: endpoint: mean survival time, dose: 25.0 mg/kg/injection, schedule: Q04DX002 (ip), vehicle: saline with Tween-80 103 % of control | endpoint: mean survival time, dose: 50.0 mg/kg/injection, schedule: Q04DX002 (ip), vehicle: saline with Tween-80 115 % of control | endpoint: mean survival time, dose: 100.0 mg/kg/injection, schedule: Q04DX002 (ip), vehicle: saline with Tween-80 103 % of control | endpoint: mean survival time, dose: 100.0 mg/kg/injection, schedule: Q04DX002 (ip), vehicle: saline 124 % of control

Clc1nc(Cl)nc(-c2cn(-c3ccccc3)c3ccccc23)n1
inactive: [5] 95 % of control | [2] 89 % of control | [6] 95 % of control | [3] 97 % of control | [7] 96 % of control | [4] 98 % of control
